The CheMixHub ionic liquid set
± gives the uncertainty stated by the source.

Assay: xn = mol fraction of the nth substance listed
Settings: 298.15 K, 101 kPa

O=C([O-])[O-].[Na+].[Na+] + CCCCCCCCCCCC[N+](C)(C)C.[Br-] + O
electrical conductivity (x1 = 0.0001801, x2 = 7.809e-05): 0.2221 ± 0.0004 S/m
electrical conductivity (x1 = 0.0001801, x2 = 8.963e-05): 0.2267 ± 0.0005 S/m
electrical conductivity (x1 = 0.0001801, x2 = 0.000101): 0.2313 ± 0.0005 S/m
electrical conductivity (x1 = 0.0001801, x2 = 0.0001125): 0.2359 ± 0.0005 S/m
electrical conductivity (x1 = 0.0001801, x2 = 0.0001241): 0.2404 ± 0.0005 S/m
electrical conductivity (x1 = 0.0001801, x2 = 0.0001356): 0.2449 ± 0.0005 S/m
electrical conductivity (x1 = 0.0001801, x2 = 0.0001466): 0.2493 ± 0.0005 S/m
electrical conductivity (x1 = 0.0001801, x2 = 0.000158): 0.2537 ± 0.0005 S/m
electrical conductivity (x1 = 0.0001801, x2 = 0.000169): 0.2579 ± 0.0005 S/m
electrical conductivity (x1 = 0.0001801, x2 = 0.00018): 0.2622 ± 0.0005 S/m
electrical conductivity (x1 = 0.0001801, x2 = 0.0001908): 0.2663 ± 0.0005 S/m
electrical conductivity (x1 = 0.0001801, x2 = 0.0002018): 0.2705 ± 0.0005 S/m
electrical conductivity (x1 = 0.0001801, x2 = 0.0002126): 0.2745 ± 0.0006 S/m
electrical conductivity (x1 = 0.0001801, x2 = 0.0002234): 0.278 ± 0.0006 S/m
electrical conductivity (x1 = 0.0001801, x2 = 0.000234): 0.2806 ± 0.0006 S/m
electrical conductivity (x1 = 0.0001801, x2 = 0.0002447): 0.2825 ± 0.0006 S/m
electrical conductivity (x1 = 0.0001801, x2 = 0.0002551): 0.2841 ± 0.0006 S/m
electrical conductivity (x1 = 0.0001801, x2 = 0.0002658): 0.2855 ± 0.0006 S/m
electrical conductivity (x1 = 0.0001801, x2 = 0.0002762): 0.2868 ± 0.0006 S/m
electrical conductivity (x1 = 0.0001801, x2 = 0.0002867): 0.288 ± 0.0006 S/m
electrical conductivity (x1 = 0.0001801, x2 = 0.0002986): 0.2893 ± 0.0006 S/m
electrical conductivity (x1 = 0.0001801, x2 = 0.0003116): 0.2908 ± 0.0006 S/m
electrical conductivity (x1 = 0.0001801, x2 = 0.000342): 0.2939 ± 0.0006 S/m
electrical conductivity (x1 = 0.0001802, x2 = 0): 0.1927 ± 0.0004 S/m
electrical conductivity (x1 = 0.0001802, x2 = 2.16e-06): 0.1931 ± 0.0004 S/m
electrical conductivity (x1 = 0.0001802, x2 = 4.51e-06): 0.1938 ± 0.0004 S/m
electrical conductivity (x1 = 0.0001802, x2 = 7.94e-06): 0.1951 ± 0.0004 S/m
electrical conductivity (x1 = 0.0001802, x2 = 1.154e-05): 0.1963 ± 0.0004 S/m
electrical conductivity (x1 = 0.0001802, x2 = 1.659e-05): 0.1981 ± 0.0004 S/m
electrical conductivity (x1 = 0.0001802, x2 = 2.309e-05): 0.2004 ± 0.0004 S/m
electrical conductivity (x1 = 0.0001802, x2 = 3.174e-05): 0.2037 ± 0.0004 S/m
electrical conductivity (x1 = 0.0001802, x2 = 4.31e-05): 0.2082 ± 0.0004 S/m
electrical conductivity (x1 = 0.0001802, x2 = 5.483e-05): 0.2128 ± 0.0004 S/m
electrical conductivity (x1 = 0.0001802, x2 = 6.655e-05): 0.2175 ± 0.0004 S/m
electrical conductivity (x1 = 0.001798, x2 = 0.0001498): 1.359 ± 0.0027 S/m
electrical conductivity (x1 = 0.001798, x2 = 0.0001618): 1.363 ± 0.0027 S/m
electrical conductivity (x1 = 0.001798, x2 = 0.0001776): 1.367 ± 0.0027 S/m
electrical conductivity (x1 = 0.001798, x2 = 0.0001934): 1.371 ± 0.0027 S/m
electrical conductivity (x1 = 0.001798, x2 = 0.000209): 1.374 ± 0.0027 S/m
electrical conductivity (x1 = 0.001798, x2 = 0.0002246): 1.377 ± 0.0028 S/m
electrical conductivity (x1 = 0.001798, x2 = 0.0002401): 1.38 ± 0.0028 S/m
electrical conductivity (x1 = 0.001798, x2 = 0.0002555): 1.383 ± 0.0028 S/m
electrical conductivity (x1 = 0.001798, x2 = 0.0002702): 1.386 ± 0.0028 S/m
electrical conductivity (x1 = 0.001798, x2 = 0.0002851): 1.389 ± 0.0028 S/m
electrical conductivity (x1 = 0.001798, x2 = 0.0003037): 1.393 ± 0.0028 S/m
electrical conductivity (x1 = 0.001798, x2 = 0.0003216): 1.396 ± 0.0028 S/m
electrical conductivity (x1 = 0.001798, x2 = 0.0003394): 1.399 ± 0.0028 S/m
electrical conductivity (x1 = 0.001798, x2 = 0.0003576): 1.402 ± 0.0028 S/m
electrical conductivity (x1 = 0.001798, x2 = 0.0003752): 1.405 ± 0.0028 S/m
electrical conductivity (x1 = 0.001798, x2 = 0.0003925): 1.408 ± 0.0028 S/m
electrical conductivity (x1 = 0.001799, x2 = 0): 1.335 ± 0.0027 S/m
electrical conductivity (x1 = 0.001799, x2 = 8.18e-06): 1.333 ± 0.0027 S/m
electrical conductivity (x1 = 0.001799, x2 = 1.563e-05): 1.333 ± 0.0027 S/m
electrical conductivity (x1 = 0.001799, x2 = 2.381e-05): 1.333 ± 0.0027 S/m
electrical conductivity (x1 = 0.001799, x2 = 3.217e-05): 1.333 ± 0.0027 S/m
electrical conductivity (x1 = 0.001799, x2 = 4.072e-05): 1.334 ± 0.0027 S/m
electrical conductivity (x1 = 0.001799, x2 = 5.126e-05): 1.335 ± 0.0027 S/m
electrical conductivity (x1 = 0.001799, x2 = 6.398e-05): 1.338 ± 0.0027 S/m
electrical conductivity (x1 = 0.001799, x2 = 7.671e-05): 1.34 ± 0.0027 S/m
electrical conductivity (x1 = 0.001799, x2 = 8.888e-05): 1.343 ± 0.0027 S/m
electrical conductivity (x1 = 0.001799, x2 = 0.0001014): 1.346 ± 0.0027 S/m
electrical conductivity (x1 = 0.001799, x2 = 0.0001138): 1.349 ± 0.0027 S/m
electrical conductivity (x1 = 0.001799, x2 = 0.000126): 1.352 ± 0.0027 S/m
electrical conductivity (x1 = 0.001799, x2 = 0.0001379): 1.355 ± 0.0027 S/m
